≈ marks a conversion by molar mass, not a printed value.
Legend:
[1] = system: mouse T cellular lymphoma EL4; settings: for Mice surviving on the 70th day: end of experiment day 70
Method: The in vivo experiments involved a model of mouse T cellular lymphoma EL4, the experimental animals were mice (males) of the B/6 species that were subcutaneously implanted with 10^5 tumor cells on day 0. The conjugates were applied intravenously in a dose of 1×15 mg/kg of DOX equivalent. This single application was carried out on the ninth day after the tumor cells transplantation, i.e. at a time when the tumor was palpable, about approx. 400 mm^3 in size.

cathepsine B = cathepsine B (Homo sapiens, UniProt P07858); assay: Degradation of grafted conjugates by cathepsine B; assay type: in vitro ADME; settings: cathepsine B 5.10^−7 mol/l, pH 6, 37° C., 24 hours
Method: The degradation experiments were carried in a phosphate buffer (0.1 M phosphate buffer containing 0.05 M NaCl, pH 6) in the presence of cathepsine B or glutathione in the role of degradation agents, i.e. in the environment modeling intracellular environment (cytoplasm, endosome and secondary lysosome). The grafted polymeric conjugates were dissolved in the phosphate buffer in concentration of 50 mg/ml and immediately before the solutions were placed in a thermostat (37° C.) a stock solution of cathepsine B or glutathione was added to the solutions so that the final concentration of these agents in the incubation medium was 5.10^−7 mol/l and 3.10^−3 mol/l for cathepsine and glutathione, respectively. In predetermined intervals aliquot parts (200 μl) were sampled from the incubation solutions. The samples were desalinated in the PD-10 columns and lyophilized. The molecular weight of the degradation products was measured using the Shimadzu SIL-HT liquid chromatograph fitted with a differential refractometer (Shimadzu RID-10A) and multiangle light dispersion detector (DAWN EOS, Wyatt Technology, USA). The analysis was carried out in a Superose™ 6 column (300×10 mm) (Amersham Bioscience). […] The molecular weight and polydispersity of the copolymer was calculated using the Astra software. […]

[2] = system: SW620 (human colorectal carcinoma); assay: In vitro cytotoxicity, SW620 line; assay type: cell-based; settings: SW-620, SW620 cells, repeated values per sample
Jurkat = assay: In vitro cytotoxicity, Jurkat line; assay type: cell-based; settings: Homo sapiens; Jurkat cells; repeated values per sample
[3] = 1×15 mg/kg DOX equivalent i.v. on day 9

Compound: poly(HPMA-co-MA-AH-NHNH2-co-MA-AH-NHN=DOX-co-MA-AH-SS—)-graft-[(SS)-poly(HPMA-co-MA-AH-NHNH2-MA-AH-NHN=DOX)] [Conjugate 3a]
- Anticancer effect [1, 3]: very significant anticancer effect
- Mice surviving on the 70th day [1, 3]: 100%
- Survival: day of animal death or LTS (individual mice) ([1]; B/6 mice, EL 4 10^5 cells s.c. day 0, one i.v. dose 15 mg/kg DOX equivalent on day 9): LTS

Compound: poly(HPMA-co-MA-AH-NHNH2-MA-AH-NHN=DOX-co-MA-GFLG-NH—)-graft-[(GFLG)-poly(HPMA-co-MA-AH-NHNH2-co-MA-AH-NHN=DOX)] [Conjugate 1d]
- Molecular weight of degradation products (cathepsine B): below the renal filtration limit
- Anticancer effect [1, 3]: very significant anticancer effect
- Weight decrease as a sign of toxicity [1, 3]: no weight decrease
- Mice surviving on the 70th day [1, 3]: 88%

Compound: COc1cccc2c1C(=O)c1c(O)c3c(c(O)c1C2=O)C[C@@](O)(C(=O)CO)C[C@@H]3O[C@H]1C[C@H](N)[C@H](O)[C@H](C)O1 [Dox, doxorubicin]
- IC50 [2]: 0.003 µg/mL (≈ 0.00552 µM)
- IC50 (Jurkat): 0.119 µg/mL (≈ 0.219 µM)

Reference: patent publication US8603990B2, “Grafted macromolecular conjugates of doxorubicin with anticancer activity and method of their preparation” (priority 2006, dated 2013)
